According to patent publication US10927139B2, “Chemically cleavable group” (Tagworks Pharmaceuticals B.V., priority 2012, dated 2021):

Assays:
[1] = Testing the stability of a TCO compound under chemical conditions (HPLC-MS/PDA, GC-MS); type: physicochemical; settings: for 1 h
Experimental: (§1) The feasibility to use the TCO group as a protective group in chemistry was studied by testing the stability of a range of TCO derivatives as model compounds under various conditions, and following the deprotection upon reaction with a tetrazine derivative under these conditions.
Typical Example for Testing the Stability of a TCO Compound
The TCO stock solution (10 μL 25 mM; 2.5*10^−7 mol) was added to a solution of the specific condition (100 μL). The mixture was stirred at the specific condition for a certain amount of time, and then the fate of the TCO compound was monitored by HPLC-MS/PDA analysis and/or GC-MS analysis, and an estimation of its stability was made.
(§2) A) in acetonitrile with 5 equivalents of pyridine per TCO at 20° C.
(§3) B) in acetonitrile with 5 equivalents of DIPEA per TCO at 20° C.
(§4) C) in acetonitrile with 5 equivalents of piperidine per TCO at 20° C.
(§5) D) in acetonitrile with 5 equivalents of n-butylamine per TCO at 20° C.
(§6) E) in acetonitrile with 5 equivalents of 2-mercaptoethanol per TCO at 20° C.
(§7) F) in tetrahydrofuran with 5 equivalents of triphenylphosphine per TCO at 20° C.
(§8) G) in acetonitrile with 5 equivalents of DCC per TCO at 20° C.
(§9) H) in acetonitrile with 5 equivalents of PyBOP per TCO at 20° C.
(§10) I) in acetonitrile with 1 v % of formic acid at 20° C.
(§11) J) in chloroform at 20° C.
(§12) K) in chloroform with 1 v % of formic acid at 20° C.
(§13) L) in chloroform with 1 v % of trifluoroacetic acid at 20° C.
(§14) M) in chloroform with 10 v % of trifluoroacetic acid at 20° C.
(§15) N) in chloroform with 33 v % of trifluoroacetic acid at 20° C.
(§16) Z) in 25% acetonitrile in water at 20° C.

[2] = Testing the feasibility of the deprotection of TCO compounds upon reaction with tetrazine; settings: for 1 h
Experimental: as §1
Typical Example for Testing the Feasibility of the Deprotection
The TCO stock solution (10 μL 25 mM in acetonitrile; 2.5*10^−7 mol) was added to a solution of the specific condition (100 μL). A solution of 3,6-dimethyl-1,2,4,5-tetrazine (8, 20 μL 25 mM in acetonitrile; 5.0*10^−7 mol) was added, and the mixture was stirred at the specific condition for a certain amount of time. The reaction was monitored by HPLC-MS/PDA analysis and/or GC-MS analysis, and the percentage of deprotection was estimated.
as §2, §3, §4, §5, §6, §7, §8, §9, §10, §11, §12, §13, §14, §15, §16

[3] = Binding of TCO-protected doxorubicin to beads coated with BSA-tetrazine and doxorubicin release (HPLC); settings: PBS, 37° C.
Experimental: Tetrazine functionalization of a BSA-coated particle has been described in J. Nucl. Med. 2013, 54, 1989-1995. Briefly, a solution of BSA (bovine serum albumin; 0.7 mg) in PBS was mixed with a 10 mg/mL solution of a bis-pyridyl-tetrazine-NHS derivative in DMF (35 μL, 30 eq. with respect to BSA) and the pH was adjusted to 9.0 with 1 M sodium carbonate buffer. The solution (125 μL total) was incubated at room temperature for 30 min then the unreacted tetrazine was removed from the solution by using a Zeba desalting spin column (7 kDa MW cut-off) pre-washed with PBS. UV measurements confirmed the presence of 12 tetrazine moieties per BSA molecule.
The eluate containing BSA-tetrazine in PBS was added to a 350 μL suspension of polystyrene beads (Polybeads, 0.5 μm, Polysciences) in H2O and the resulting suspension was incubated at +4° C. for 1 h on an end-over-end rotating mixer (10 rpm). After incubation, the suspension of beads coated with BSA-tetrazine was centrifuged at 12,000 rpm for 4 min. The supernatant was carefully removed and the pellet was resuspended in 1.5 mL PBS by using a tip sonicator at low power (Sonics VibraCell, 4×5 sec pulses, 40% of power). The centrifuging-resuspension cycle was repeated 2 times, after which the bead pellet was resuspended in 200 μL PBS and reacted with 7 nmol of TCO-protected doxorubicin (TCO-3-Doxorubin, 1 mM in DMSO).
After 5 min incubation at 37° C. in a thermomixer (350 rpm), the beads were removed by centrifugation and the supernatant was analyzed by HPLC on an Agilent Techologies system (1100 series) equipped with a fluorescence detector with λhex=485 nm and λem=590 nm. The sample was loaded on an Eclipse XDB-C18 column (5 μm, 4.6×150 mm^2, Agilent) which was eluted isocratically with 30% (v/v) acetonitrile in H2O containing 0.1% TFA (v/v) at 1 mL/min. HPLC analysis of the supernatant confirmed that ca. 75% of TCO-doxorubicin was bound to the beads.
The bead pellet was resuspended in 1.5 mL PBS and centrifuged twice to eliminate unbound TCO-doxorubicin. Subsequently, the beads were resuspended in 400 μL PBS and incubated at 37° C. At various times, aliquots of the supernatant were analyzed by HPLC. The chromatographic profiles (FIG. 2) show release of free doxorubicin (Rt=6.2 min) from the beads with time (>45% after 3 h; complete within 24 h).

[4] = Z) in 25% acetonitrile in water at 20° C.
[5] = tetrazine 8; Z) in 25% acetonitrile in water at 20° C.
[6] = A) in acetonitrile with 5 equivalents of pyridine per TCO at 20° C.
[7] = B) in acetonitrile with 5 equivalents of DIPEA per TCO at 20° C.
[8] = G) in acetonitrile with 5 equivalents of DCC per TCO at 20° C.
[9] = I) in acetonitrile with 1 v % of formic acid at 20° C.
[10] = tetrazine 8; A) in acetonitrile with 5 equivalents of pyridine per TCO at 20° C.
[11] = tetrazine 8; B) in acetonitrile with 5 equivalents of DIPEA per TCO at 20° C.
[12] = tetrazine 8; G) in acetonitrile with 5 equivalents of DCC per TCO at 20° C.
[13] = tetrazine 8; I) in acetonitrile with 1 v % of formic acid at 20° C.
[14] = tetrazine 8; J) in chloroform at 20° C.

SMILES	Stability of TCO [1, 4]	Stability of TCO [1, 6]	Stability of TCO [1, 7]	Stability of TCO [1, 8]	Stability of TCO [1, 9]	Deprotection (%) [2, 5] [%]	Deprotection (%) [2, 10] [%]	Deprotection (%) [2, 11] [%]	Deprotection (%) [2, 12] [%]	Deprotection (%) [2, 13] [%]	further results
O=C(OC1/C=C/CCCCC1)c1ccc([N+](=O)[O-])cc1 (stereo not shown) [drawing 116]	stable	stable	–	stable	stable	80	68	83	89	95	Stability of TCO: hydrolysis [1, 7]: ~2%
O=C(Oc1ccc([N+](=O)[O-])cc1)OC1/C=C/CCCCC1 (stereo not shown)	stable	stable	–	stable	stable	70	64	90	72	97	Stability of TCO: hydrolysis [1, 7]: 19%
O=C(NCc1cccc2ccccc12)OC1/C=C/CCCCC1 (stereo not shown)	stable stable stable stable stable stable stable stable stable stable stable stable stable stable	stable stable stable stable stable stable stable stable stable stable stable stable stable stable	stable stable stable stable stable stable stable stable stable stable stable stable stable stable	stable stable stable stable stable stable stable stable stable stable stable stable stable stable	stable stable stable stable stable stable stable stable stable stable stable stable stable stable	85	87	58	74	93	Stability of TCO ([1]; C) in acetonitrile with 5 equivalents of piperidine per TCO at 20° C.): stable stable stable stable stable stable stable stable stable stable stable stable stable stable; Stability of TCO ([1]; D) in acetonitrile with 5 equivalents of n-butylamine per TCO at 20° C.): stable stable stable stable stable stable stable stable stable stable stable stable stable stable; Stability of TCO ([1]; E) in acetonitrile with 5 equivalents of 2-mercaptoethanol per TCO at 20° C.): stable stable stable stable stable stable stable stable stable stable stable stable stable stable; Stability of TCO ([1]; F) in tetrahydrofuran with 5 equivalents of triphenylphosphine per TCO at 20° C.): stable stable stable stable stable stable stable stable stable stable stable stable stable stable; Stability of TCO ([1]; H) in acetonitrile with 5 equivalents of PyBOP per TCO at 20° C.): stable stable stable stable stable stable stable stable stable stable stable stable stable stable; Stability of TCO ([1]; J) in chloroform at 20° C.): stable stable stable stable stable stable stable stable stable stable stable stable stable stable; Stability of TCO ([1]; K) in chloroform with 1 v % of formic acid at 20° C.): stable stable stable stable stable stable stable stable stable stable stable stable stable stable; Stability of TCO ([1]; L) in chloroform with 1 v % of trifluoroacetic acid at 20° C.): stable stable stable stable stable stable stable stable stable stable stable stable stable stable; Stability of TCO ([1]; M) in chloroform with 10 v % of trifluoroacetic acid at 20° C.): stable stable stable stable stable stable stable stable stable stable stable stable stable stable; Deprotection (%) ([2]; tetrazine 8; C) in acetonitrile with 5 equivalents of piperidine per TCO at 20° C.): 48%; Deprotection (%) ([2]; tetrazine 8; D) in acetonitrile with 5 equivalents of n-butylamine per TCO at 20° C.): 47%; Deprotection (%) ([2]; tetrazine 8; E) in acetonitrile with 5 equivalents of 2-mercaptoethanol per TCO at 20° C.): 67%; Deprotection (%) ([2]; tetrazine 8; F) in tetrahydrofuran with 5 equivalents of triphenylphosphine per TCO at 20° C.): 75%; Deprotection (%) ([2]; tetrazine 8; H) in acetonitrile with 5 equivalents of PyBOP per TCO at 20° C.): 74%; Deprotection (%) [2, 14]: 73%; Deprotection (%) ([2]; tetrazine 8; K) in chloroform with 1 v % of formic acid at 20° C.): 98%; Deprotection (%) ([2]; tetrazine 8; L) in chloroform with 1 v % of trifluoroacetic acid at 20° C.): 99%; Deprotection (%) ([2]; tetrazine 8; M) in chloroform with 10 v % of trifluoroacetic acid at 20° C.): 99%
COc1cccc2c1C(=O)c1c(O)c3c(c(O)c1C2=O)C[C@@](O)(C(=O)CO)C[C@@H]3O[C@H]1C[C@H](N)[C@H](O)[C@H](C)O1 [doxorubicin, reference compound]	–	–	–	–	–	–	–	–	–	–	time to complete release of free doxorubicin from the beads [3]: ≤ 24 h; release of free doxorubicin from the beads ([3]; after 3 h): > 45%
O=C(Cc1ccccc1)C(C(=O)OC1/C=C/CCCCC1)c1ccccc1 (stereo not shown)	stable stable	–	–	–	–	70	–	–	–	–	Stability of TCO ([1]; J) in chloroform at 20° C.): stable stable; Deprotection (%) [2, 14]: 95%
C1=C/C(OCc2ccccc2)CCCCC/1 (stereo not shown)	stable stable	–	–	–	–	54	–	–	–	–	Stability of TCO ([1]; J) in chloroform at 20° C.): stable stable; Deprotection (%) [2, 14]: 70%

Second part, led by results:

Stability of TCO [1, 4]	Stability of TCO [1, 6]	Stability of TCO [1, 7]	Stability of TCO [1, 8]	Stability of TCO [1, 9]	SMILES	Deprotection (%) [2, 5] [%]	Deprotection (%) [2, 10] [%]	Deprotection (%) [2, 11] [%]	Deprotection (%) [2, 12] [%]	Deprotection (%) [2, 13] [%]	further results
stable	–	–	–	–	O=C(OC1/C=C/CCCCC1)c1ccc([N+](=O)[O-])cc1 (stereo not shown) [drawing 118]	66	–	–	–	–	–
stable stable stable stable stable	stable stable stable stable stable	stable stable stable stable stable	stable stable stable stable stable	stable stable stable stable stable	C1=C/C(Oc2ccccc2)CCCCC/1 (stereo not shown) [drawing 120]	87	42	92	80	92	–
stable	–	–	–	–	C1=C/C(Oc2ccccc2)CCCCC/1 (stereo not shown) [drawing 122]	72	–	–	–	–	–
–	stable stable stable stable	stable stable stable stable	stable stable stable stable	stable stable stable stable	Cc1cc(C)cc(NC(=O)OC2/C=C/CCCCC2)c1 (stereo not shown) [drawing 126]	–	14	4	61	97	–
–	stable stable stable stable	stable stable stable stable	stable stable stable stable	stable stable stable stable	Cc1cc(C)cc(NC(=O)OC2/C=C/CCCCC2)c1 (stereo not shown) [drawing 128]	–	55	39	91	97	–
